Source: patent publication US4060530A, “Clavulanic acid amides” (Beecham Group Limited, priority 1975, dated 1977)
In brackets after ≈: the same amount, converted by molar mass. Read-outs that look alike come from different tables or passages of the source. Blank lines part the entries; values can stand above or below the compound they belong to.

Experiments:
Escherchia coli 10418 = test: MIC, method of Example 30 with 1/100 dilution of overnight broth (Example 46)
[1] = tested on: strains of Klebsiella aerogenes (A, E 70, 62); test: Growth inhibition of the test organisms of Table 8 by the esters alone; conditions: read-out: concentration at which growth of the test organisms was not inhibited
Staph. aureus Oxford = test: MIC, method of Example 30 with 1/100 dilution of overnight broth (Example 46)
Bacillus subtilis A = test: as above
Staph. aureus Russell = test: as above
Klebsiella aerogenes A [2] = test: Growth inhibition / synergism; type: cell-based; conditions: for MIC: Klebsiella aerogenes, agent alone, read-out: concentration in whose presence growth is not inhibited; for concentration inhibiting growth when 5 μg/ml. of clavulanic acid is also present: plus 5 μg/ml clavulanic acid
[3] = tested on: Klebsiella aerogenes E 70; test: MIC / synergism, microtitre method (Example 42); type: cell-based; conditions: for Antibacterial synergism value, +5μg/ml. synergist (M.I.C. by method of Example 42): +5μg/ml. synergist (clavulanic acid sodium salt); for MIC: Klebsiella aerogenes
Klebsiella aerogenes 62 = test: MIC / synergism, microtitre method (Example 42); type: cell-based; conditions: for Antibacterial synergism value, +5μg/ml. synergist (M.I.C. by method of Example 42): +5μg/ml. synergist (clavulanic acid sodium salt); for MIC: Klebsiella aerogenes, 62, Alone (Tables 7, 8), Example 42 records M.I.C. in μg/ml, read-out: Antibacterial synergism value, Alone (M.I.C. by method of Example 42)
Klebsiella aerogenes A [4] = test: MIC / synergism, microtitre method (Example 42); type: cell-based; conditions: for Antibacterial synergism value, +5μg/ml. synergist (M.I.C. by method of Example 42): +5μg/ml. synergist (clavulanic acid sodium salt); for MIC: Klebsiella aerogenes, Alone (Tables 7, 8), Example 42 records M.I.C. in μg/ml, read-out: Antibacterial synergism value, Alone (M.I.C. by method of Example 42)
Serratia marcescens = test: MIC / synergism, microtitre method (Example 42); type: cell-based; conditions: agent alone, inoculum final dilution 0.5 ×10^-2, 37° C overnight, read-out: Minimum Inhibitory Concentration
[5] = tested on: Escherichia coli NCTC 10481; test: MIC / synergism, microtitre method (Example 42); type: cell-based; conditions: NCTC10481, agent alone, inoculum final dilution 0.5 ×10^-2, 37° C overnight, read-out: Minimum Inhibitory Concentration
Proteus mirabilis C889 = test: M.I.C. synergism with clavulanic acid methyl ester (Example 32); type: cell-based; conditions: plus 5 μg/ml clavulanic acid methyl ester
[6] = tested on: Staphylococcus aureus Russell; test: Growth inhibition / synergism; type: cell-based; conditions: for MIC: Staphylococcus aureus, agent alone, read-out: concentration in whose presence growth is not inhibited
[7] = tested on: Staphylococcus aureus (Russell); test: M.I.C. synergism with clavulanic acid methyl ester (Example 32); type: cell-based
Staphylococcus aureus = test: MIC / synergism, microtitre method (Example 42); type: cell-based; conditions: for MIC: Staphylococcus aureus, agent alone (Tables 5, 6), inoculum final dilution 0.5 ×10^-2, 37° C overnight, read-out: Minimum Inhibitory Concentration
[8] = tested on: Staphylococcus aureus (Russell); test: MIC / synergism, microtitre method (Example 42); type: cell-based
Proteus mirabilis 899 = test: microbe, parasite or virus in culture; type: cell-based; conditions: method of Example 42
[9] = Hydrolysis of the methyl ester to clavulanic acid in pH 7 buffer; type: physicochemical
Experimental: The reaction was followed by paper chromatography (bioautographic system). Using the butanol/ethanol/water system to follow the reaction over a period of 2 hours the zone of the methyl ester at Rf 0.79 decreased in size as the zone of clavulanic acid at Rf 0.12 increased.

bacteria = test: Tests for antibacterial activity in broth (Example 32); type: cell-based; conditions: may be due to clavulanic acid liberated by hydrolysis
[10] = target: T1, β-lactamase produced by Escherichia coli JT4 (Escherichia coli, UniProt P62593); test: β-lactamase inhibition assay (Description 1); type: biochemical
T1 construct: This cell suspension was then disrupted in an MSE ultrasonic disintegrator; endogenous in cells; supernatant of sonicated cells
T1 sequence (P62593 24-286 limits assumed): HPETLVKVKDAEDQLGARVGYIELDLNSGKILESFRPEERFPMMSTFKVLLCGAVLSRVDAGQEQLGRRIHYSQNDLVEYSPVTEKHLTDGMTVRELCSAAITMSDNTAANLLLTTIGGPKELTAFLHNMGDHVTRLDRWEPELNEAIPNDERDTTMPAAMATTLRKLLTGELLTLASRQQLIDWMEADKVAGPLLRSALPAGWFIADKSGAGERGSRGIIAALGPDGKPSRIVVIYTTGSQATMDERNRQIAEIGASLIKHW

[11] = heavy inoculum, 1/100 dilution of overnight broth, Example 30 records MIC in μg/ml
[12] = with 5 μg/ml of benzyl ester of clavulanic acid
[13] = with 5 μg/ml of methyl ester of clavulanic acid
[14] = plus 5 μg/ml clavulanic acid sodium salt, method of Example 42

MIC (Escherchia coli 10418): 125 µg/mL (≈ 432 µM)
MIC [1]: > 100 µg/mL
MIC (Staph. aureus Oxford; Staphylococcus aureus): 62 µg/mL (≈ 214 µM)
MIC (Bacillus subtilis A; Bacillus subtilis): 250 µg/mL (≈ 864 µM)
MIC (Staph. aureus Russell; Staphylococcus aureus): 125 µg/mL (≈ 432 µM)
SMILES: O=C(OCc1ccccc1)[C@H]1/C(=C/CO)O[C@@H]2CC(=O)N21 [Benzyl ester, benzyl ester of 3-(β-hydroxyethylidine)-7-oxo-4-oxa-1-azabicyclo [3,2,0]heptane-2-carboxylic acid]

SMILES: CC1(C)S[C@@H]2[C@H](NC(=O)Cc3ccccc3)C(=O)N2[C@H]1C(=O)O [Benzylpenicillin, benzylpenicillin]
MIC (Klebsiella aerogenes A [2]): > 125 µg/mL
concentration inhibiting growth when 5 μg/ml. of clavulanic acid is also present (Klebsiella aerogenes A [2]): less than 12.5 μg/ml
Antibacterial synergism value, +5μg/ml. synergist (M.I.C. by method of Example 42) [3]: 15.6
MIC ([3]; E70, read-out: Antibacterial synergism value, Alone (M.I.C. by method of Example 42)): 500 µg/mL
Antibacterial synergism value, +5μg/ml. synergist (M.I.C. by method of Example 42) (Klebsiella aerogenes 62): 15.6
MIC (Klebsiella aerogenes 62): 250 µg/mL
Antibacterial synergism value, +5μg/ml. synergist (M.I.C. by method of Example 42) (Klebsiella aerogenes A [4]): 7.8
MIC (Klebsiella aerogenes A [4]): 250 µg/mL

MIC (Escherchia coli 10418): 250 µg/mL (≈ 768 µM)
MIC (Staph. aureus Oxford; Staphylococcus aureus): 31 µg/mL (≈ 95.3 µM)
MIC (Bacillus subtilis A; Bacillus subtilis): 31 µg/mL (≈ 95.3 µM)
MIC (Staph. aureus Russell; Staphylococcus aureus): 31 µg/mL (≈ 95.3 µM)
SMILES: CCCCCCCCCOC(=O)[C@H]1/C(=C/CO)O[C@@H]2CC(=O)N21 [Nonyl ester, Nonyl Clavulanate]

MIC (Escherchia coli 10418; [11]): 125
MIC (Staph. aureus Oxford; [11]): 31
MIC (Bacillus subtilis A; [11]): 125
MIC (Staph. aureus Russell; [11]): 15
SMILES: O=C1OC(OC(=O)[C@H]2/C(=C/CO)O[C@@H]3CC(=O)N32)c2ccccc21 (stereo partly shown) [Phthalidyl ester, Clavulanic Acid Phthalide Esters]

MIC (Escherchia coli 10418): 125 µg/mL (≈ 399 µM)
MIC (Staph. aureus Oxford; Staphylococcus aureus): 31 µg/mL (≈ 98.9 µM)
MIC (Bacillus subtilis A; Bacillus subtilis): 62 µg/mL (≈ 198 µM)
MIC (Staph. aureus Russell; Staphylococcus aureus): 62 µg/mL (≈ 198 µM)
SMILES: CC(C)(C)C(=O)OCOC(=O)[C@H]1/C(=C/CO)O[C@@H]2CC(=O)N21 [Pivaloyloxymethyl ester, Pivaloyloxymethyl Clavulanate]

SMILES: CC1(C)S[C@@H]2[C@H](NC(=O)[C@H](N)c3ccccc3)C(=O)N2[C@H]1C(=O)O [ampicillin]
MIC (Serratia marcescens): > 500 µg/mL
MIC [5]: 1.8 µg/mL
M.I.C. in the presence of 5 μg/ml. clavulanic acid methyl ester (Proteus mirabilis C889): 31 µg/mL
MIC [6]: > 100 µg/mL
concentration inhibiting growth in the presence of 1 μg/ml. of clavulanic acid ([6]; plus 1 μg/ml clavulanic acid): less than 10 μg/ml
Ampicillin 5 μg/ml of Benzyl Ester of clavulanic acid (M.I.C. by method of Example 42) [3, 12]: 3.9
Ampicillin 5 μg/ml of Methyl Ester of clavulanic acid (M.I.C. by method of Example 42) [3, 13]: 3.9
M.I.C. in the presence of 1.0 μg/ml. clavulanic acid methyl ester ([7]; plus 1 μg/ml clavulanic acid methyl ester): < 0.4 µg/mL
Ampicillin 5 μg/ml of Benzyl Ester of clavulanic acid (M.I.C. by method of Example 42) (Klebsiella aerogenes 62; [12]): 3.9
Ampicillin 5 μg/ml of Methyl Ester of clavulanic acid (M.I.C. by method of Example 42) (Klebsiella aerogenes 62; [13]): 3.9
Ampicillin 5 μg/ml of Benzyl Ester of clavulanic acid (M.I.C. by method of Example 42) (Klebsiella aerogenes A [4]; [12]): 1.9
Ampicillin 5 μg/ml of Methyl Ester of clavulanic acid (M.I.C. by method of Example 42) (Klebsiella aerogenes A [4]; [13]): 1.9
MIC (Staphylococcus aureus): 250 µg/mL

SMILES: CC1(C)S[C@@H]2[C@H](NC(=O)C(C(=O)O)c3ccccc3)C(=O)N2[C@H]1C(=O)O (stereo partly shown) [carbenicillin]
MIC (Klebsiella aerogenes A [2]): > 125 µg/mL
concentration inhibiting growth when 5 μg/ml. of clavulanic acid is also present (Klebsiella aerogenes A [2]): less than 12.5 μg/ml
Antibacterial synergism value, +5μg/ml. synergist (M.I.C. by method of Example 42) [3]: 15
MIC ([3]; E70, Alone (Tables 7, 8), Example 42 records M.I.C. in μg/ml, read-out: Antibacterial synergism value, Alone (M.I.C. by method of Example 42)): 500 µg/mL
Antibacterial synergism value, +5μg/ml. synergist (M.I.C. by method of Example 42) (Klebsiella aerogenes 62): 7.8
MIC (Klebsiella aerogenes 62): 125 µg/mL
Antibacterial synergism value, +5μg/ml. synergist (M.I.C. by method of Example 42) (Klebsiella aerogenes A [4]): 7.8
MIC (Klebsiella aerogenes A [4]): 500 µg/mL

SMILES: O=C(Cc1cccs1)N[C@@H]1C(=O)N2C(C(=O)[O-])=C(C[n+]3ccccc3)CS[C@H]12 [cephaloridine]
MIC ([8]; Staphylococcus aureus, agent alone (Tables 5, 6), inoculum final dilution 0.5 ×10^-2, 37° C overnight, read-out: Minimum Inhibitory Concentration): 3.1 µg/mL
Minimum Inhibitory Concentration in presence of 5μg/ml clavulanic acid sodium salt [8, 14]: < 0.03 µg/mL
MIC (Proteus mirabilis 899; Proteus mirabilis, 899, agent alone, * = Tailing Point, read-out: Minimum Inhibitory Concentration): 62 µg/mL (≈ 149 µM)
Minimum Inhibitory Concentration in presence of 5μg/ml clavulanic acid sodium salt (Proteus mirabilis 899; plus 5 μg/ml clavulanic acid sodium salt): 7.5 µg/mL
M.I.C. in the presence of 1.0 μg/ml. clavulanic acid methyl ester [7]: < 0.03 µg/mL
MIC ([7]; Staphylococcus aureus, antibiotic alone, read-out: minimum inhibitory concentration (M.I.C.)): 1.5 µg/mL
MIC (Staphylococcus aureus): 15 µg/mL
Minimum Inhibitory Concentration in presence of 5μg/ml clavulanic acid sodium salt (Staphylococcus aureus; [14]): 3.7 µg/mL

SMILES: COC(=O)[C@H]1/C(=C/CO)O[C@@H]2CC(=O)N21 [clavulanic acid methyl ester]
MIC (Klebsiella aerogenes A [2]): > 10 µg/mL
conversion of the ester to clavulanic acid ([9]; 1 mg/ml, 37° C, 0.05M phosphate buffer pH 7, followed over 2 hours by paper chromatography): Slow conversion of the ester to clavulanic acid
hydrolysis to clavulanic acid ([9]; water buffered to pH7): slowly hydrolyze to clavulanic acid
MIC [1]: > 100 µg/mL
antibacterial activity in broth (bacteria): broad spectrum activity but of a lower order than shown by clavulanic acid

SMILES: O=C(O)[C@H]1/C(=C/CO)O[C@@H]2CC(=O)N21 [clavulanic acid, Z-(2R,5R)-3-(β-hydroxyethylidene)-7-oxo-4-oxa-1-azabicyclo[3,2,0]heptane-2-carboxylic acid]
MIC [6]: > 5 µg/mL
mode of inhibition of the β-lactamase of Escherichia coli [10]: progressively and irreversibly inhibits
